From patent US8969309B2, “Crystal of peptide substance as well as the preparation method and use thereof” (Shanghai Techwell Biopharmaceutical Co., Ltd., priority 2010, dated 2015)

Assay: Purity and stability test (content by HPLC after sealed storage)
Assay type: physicochemical
Conditions: for Content of the intial sample: HPLC content before storage; for Content of the sample stored at 25° C. for 14 days: sealed storage at 25° C. for 14 days, content by HPLC
Procedure: The purity was detected by high performance liquid chromatography (HPLC) method. HPLC method was performed according to the method reported in Journal of Industrial Microbiology & Biotechnology (2001), 26, 216-221; the normal phase HPLC is employed:
silica gel column: 4.6 mm*250 mm;
Mobile phase: ethyl acetate:methanol:water=84:9:7 (V/V/V);
Detection wavelength: 278 nm.
The purity and stability of samples prepared in the comparative example and examples 1-4 were compared. The method is described as follows:
The samples from comparative-example, example 1, example 2, example 3 and example 4 were obtained separately and kept at 25° C. for 14 days in sealed storage. And then the contents of the samples were tested by HPLC.

Compound | stability compared with crystal A and amorphous powder (25° C., 14 days, sealed storage) | Content of the intial sample [%] | Content of the sample stored at 25° C. for 14 days [%]
CCC(C)CC(C)CCCCCCCCC(=O)NC1CC(O)[C@@H](O)NC(=O)[C@H]2[C@@H](O)CCN2C(=O)[C@H](C(O)CC(N)=O)NC(=O)C(C(O)C(O)c2ccc(O)cc2)NC(=O)[C@@H]2C[C@@H](O)CN2C(=O)[C@H](C(C)O)NC1=O (some centres unmarked) [crystal B of the compound of formula I] | better stability |  | 
CCC(C)CC(C)CCCCCCCCC(=O)NC1CC(O)[C@@H](O)NC(=O)[C@H]2[C@@H](O)CCN2C(=O)[C@H](C(O)CC(N)=O)NC(=O)C(C(O)C(O)c2ccc(O)cc2)NC(=O)[C@@H]2C[C@@H](O)CN2C(=O)[C@H](C(C)O)NC1=O (some centres unmarked) [Example 3] |  | 99.8 | 99.5
CCC(C)CC(C)CCCCCCCCC(=O)NC1CC(O)[C@@H](O)NC(=O)[C@H]2[C@@H](O)CCN2C(=O)[C@H](C(O)CC(N)=O)NC(=O)C(C(O)C(O)c2ccc(O)cc2)NC(=O)[C@@H]2C[C@@H](O)CN2C(=O)[C@H](C(C)O)NC1=O (some centres unmarked) [Comparative example, reference compound] |  | 97.7 | 95.6
CCC(C)CC(C)CCCCCCCCC(=O)NC1CC(O)[C@@H](O)NC(=O)[C@H]2[C@@H](O)CCN2C(=O)[C@H](C(O)CC(N)=O)NC(=O)C(C(O)C(O)c2ccc(O)cc2)NC(=O)[C@@H]2C[C@@H](O)CN2C(=O)[C@H](C(C)O)NC1=O (some centres unmarked) [Example 1] |  | 96.1 | 93.5
CCC(C)CC(C)CCCCCCCCC(=O)NC1CC(O)[C@@H](O)NC(=O)[C@H]2[C@@H](O)CCN2C(=O)[C@H](C(O)CC(N)=O)NC(=O)C(C(O)C(O)c2ccc(O)cc2)NC(=O)[C@@H]2C[C@@H](O)CN2C(=O)[C@H](C(C)O)NC1=O (some centres unmarked) [Example 4] |  | 99.8 | 99.5
CCC(C)CC(C)CCCCCCCCC(=O)NC1CC(O)[C@@H](O)NC(=O)[C@H]2[C@@H](O)CCN2C(=O)[C@H](C(O)CC(N)=O)NC(=O)C(C(O)C(O)c2ccc(O)cc2)NC(=O)[C@@H]2C[C@@H](O)CN2C(=O)[C@H](C(C)O)NC1=O (some centres unmarked) [Example 2] |  | 99.8 | 99.6
